Tests used:
[1] = biological target: Histone deacetylase; format: cell-based, Homo sapiens; details: hela
[2] = test system: HCT-116; assay: Antiproliferative activity against human HCT-116 cells measured after 48 hrs by MTT assay; format: functional, cell-based; details: HCT-116, 48 h
[3] = test system: MDA-MB-231; assay: Antiproliferative activity against human MDA-MB-231 cells measured after 48 hrs by MTT assay; format: functional, cell-based; details: MDA-MB-231, 48 h
[4] = test system: A549; assay: cells; format: functional, cell-based; details: Homo sapiens, A549, 48 h
[5] = test system: SGC-7901; assay: Antiproliferative activity against human SGC-7901 cells measured after 48 hrs by MTT assay; format: functional, cell-based; details: SGC-7901, 48 h
[6] = biological target: T1, Histone deacetylase 8 (Homo sapiens, UniProt Q9BY41); assay: Inhibition of human full-length C-terminal His-tagged HDAC8 expressed in baculovirus infected Sf9 insect cell using fluorogenic HDAC class 2a substrate measured after 30 mins by fluorimetry
T1 sequence (Q9BY41 whole entry): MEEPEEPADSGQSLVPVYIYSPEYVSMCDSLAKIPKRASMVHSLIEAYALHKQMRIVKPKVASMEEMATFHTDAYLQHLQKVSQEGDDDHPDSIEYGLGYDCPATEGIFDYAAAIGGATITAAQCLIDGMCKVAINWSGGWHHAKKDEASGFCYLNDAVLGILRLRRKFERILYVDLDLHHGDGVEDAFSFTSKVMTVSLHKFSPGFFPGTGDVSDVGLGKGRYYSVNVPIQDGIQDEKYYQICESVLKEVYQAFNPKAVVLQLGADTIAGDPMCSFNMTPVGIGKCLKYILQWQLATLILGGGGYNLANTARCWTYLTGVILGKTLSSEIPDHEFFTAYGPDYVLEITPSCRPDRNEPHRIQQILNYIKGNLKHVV

[7] = biological target: T2, Protein deacetylase HDAC6 (Homo sapiens, UniProt Q9UBN7); assay: Inhibition of recombinant human N-terminal GST-tagged HDAC6 (1 to 1215 residues) expressed in Sf9 insect cells using fluorogenic HDAC substrate 3 measured after 30 mins by fluorimetry
T2 sequence (Q9UBN7 whole entry): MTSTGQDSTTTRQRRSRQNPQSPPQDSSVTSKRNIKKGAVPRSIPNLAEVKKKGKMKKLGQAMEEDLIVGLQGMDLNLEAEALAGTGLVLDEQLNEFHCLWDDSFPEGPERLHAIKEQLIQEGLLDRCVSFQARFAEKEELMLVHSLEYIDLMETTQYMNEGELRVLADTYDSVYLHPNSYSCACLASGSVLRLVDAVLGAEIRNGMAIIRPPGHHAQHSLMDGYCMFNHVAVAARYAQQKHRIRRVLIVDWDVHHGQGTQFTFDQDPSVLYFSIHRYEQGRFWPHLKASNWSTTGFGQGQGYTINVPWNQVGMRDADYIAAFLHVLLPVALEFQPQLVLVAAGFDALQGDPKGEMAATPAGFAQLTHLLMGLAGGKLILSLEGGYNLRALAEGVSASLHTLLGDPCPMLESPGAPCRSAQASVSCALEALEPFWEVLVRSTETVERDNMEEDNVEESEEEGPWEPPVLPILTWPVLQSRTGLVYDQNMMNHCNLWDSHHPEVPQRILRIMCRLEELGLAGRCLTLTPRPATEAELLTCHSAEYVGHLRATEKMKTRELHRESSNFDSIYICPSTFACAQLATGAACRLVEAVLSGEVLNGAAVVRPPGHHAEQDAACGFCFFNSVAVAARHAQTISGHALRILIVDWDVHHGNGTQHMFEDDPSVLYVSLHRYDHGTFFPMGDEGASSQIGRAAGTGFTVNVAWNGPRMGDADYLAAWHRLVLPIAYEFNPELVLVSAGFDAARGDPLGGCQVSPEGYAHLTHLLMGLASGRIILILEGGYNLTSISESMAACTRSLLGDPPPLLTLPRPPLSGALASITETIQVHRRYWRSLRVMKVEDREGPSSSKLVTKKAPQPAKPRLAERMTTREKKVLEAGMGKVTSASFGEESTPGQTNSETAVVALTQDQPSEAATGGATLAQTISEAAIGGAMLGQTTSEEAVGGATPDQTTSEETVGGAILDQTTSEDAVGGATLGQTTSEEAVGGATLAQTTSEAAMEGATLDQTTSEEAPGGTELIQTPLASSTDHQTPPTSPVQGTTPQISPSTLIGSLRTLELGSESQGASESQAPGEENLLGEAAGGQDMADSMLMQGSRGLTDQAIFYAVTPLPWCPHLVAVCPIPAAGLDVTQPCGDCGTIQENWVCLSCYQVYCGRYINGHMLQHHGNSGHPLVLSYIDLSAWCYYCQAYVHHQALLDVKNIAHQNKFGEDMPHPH

[8] = biological target: Histone deacetylase 3/Nuclear receptor corepressor 2 (HDAC3/NCoR2) (Homo sapiens, UniProt O15379); assay: biochemical; set-up: species or system Sf9
Chain of Histone deacetylase 3/Nuclear receptor corepressor 2 (HDAC3/NCoR2) (O15379 whole entry, the tested form may be a part): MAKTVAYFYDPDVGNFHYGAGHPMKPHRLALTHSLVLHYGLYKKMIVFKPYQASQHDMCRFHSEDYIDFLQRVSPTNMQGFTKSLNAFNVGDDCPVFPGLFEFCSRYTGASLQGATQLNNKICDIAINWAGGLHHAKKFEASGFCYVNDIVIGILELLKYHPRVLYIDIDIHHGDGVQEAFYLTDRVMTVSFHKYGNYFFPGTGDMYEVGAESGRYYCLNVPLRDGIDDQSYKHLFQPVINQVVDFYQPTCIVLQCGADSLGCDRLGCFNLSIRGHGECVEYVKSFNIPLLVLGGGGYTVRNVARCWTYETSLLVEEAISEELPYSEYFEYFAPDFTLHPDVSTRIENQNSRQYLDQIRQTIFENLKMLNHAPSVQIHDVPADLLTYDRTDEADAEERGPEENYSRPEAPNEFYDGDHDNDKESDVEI
Chain of Histone deacetylase 3/Nuclear receptor corepressor 2 (HDAC3/NCoR2) (Q9Y618 whole entry, further chain, the tested form may be a part): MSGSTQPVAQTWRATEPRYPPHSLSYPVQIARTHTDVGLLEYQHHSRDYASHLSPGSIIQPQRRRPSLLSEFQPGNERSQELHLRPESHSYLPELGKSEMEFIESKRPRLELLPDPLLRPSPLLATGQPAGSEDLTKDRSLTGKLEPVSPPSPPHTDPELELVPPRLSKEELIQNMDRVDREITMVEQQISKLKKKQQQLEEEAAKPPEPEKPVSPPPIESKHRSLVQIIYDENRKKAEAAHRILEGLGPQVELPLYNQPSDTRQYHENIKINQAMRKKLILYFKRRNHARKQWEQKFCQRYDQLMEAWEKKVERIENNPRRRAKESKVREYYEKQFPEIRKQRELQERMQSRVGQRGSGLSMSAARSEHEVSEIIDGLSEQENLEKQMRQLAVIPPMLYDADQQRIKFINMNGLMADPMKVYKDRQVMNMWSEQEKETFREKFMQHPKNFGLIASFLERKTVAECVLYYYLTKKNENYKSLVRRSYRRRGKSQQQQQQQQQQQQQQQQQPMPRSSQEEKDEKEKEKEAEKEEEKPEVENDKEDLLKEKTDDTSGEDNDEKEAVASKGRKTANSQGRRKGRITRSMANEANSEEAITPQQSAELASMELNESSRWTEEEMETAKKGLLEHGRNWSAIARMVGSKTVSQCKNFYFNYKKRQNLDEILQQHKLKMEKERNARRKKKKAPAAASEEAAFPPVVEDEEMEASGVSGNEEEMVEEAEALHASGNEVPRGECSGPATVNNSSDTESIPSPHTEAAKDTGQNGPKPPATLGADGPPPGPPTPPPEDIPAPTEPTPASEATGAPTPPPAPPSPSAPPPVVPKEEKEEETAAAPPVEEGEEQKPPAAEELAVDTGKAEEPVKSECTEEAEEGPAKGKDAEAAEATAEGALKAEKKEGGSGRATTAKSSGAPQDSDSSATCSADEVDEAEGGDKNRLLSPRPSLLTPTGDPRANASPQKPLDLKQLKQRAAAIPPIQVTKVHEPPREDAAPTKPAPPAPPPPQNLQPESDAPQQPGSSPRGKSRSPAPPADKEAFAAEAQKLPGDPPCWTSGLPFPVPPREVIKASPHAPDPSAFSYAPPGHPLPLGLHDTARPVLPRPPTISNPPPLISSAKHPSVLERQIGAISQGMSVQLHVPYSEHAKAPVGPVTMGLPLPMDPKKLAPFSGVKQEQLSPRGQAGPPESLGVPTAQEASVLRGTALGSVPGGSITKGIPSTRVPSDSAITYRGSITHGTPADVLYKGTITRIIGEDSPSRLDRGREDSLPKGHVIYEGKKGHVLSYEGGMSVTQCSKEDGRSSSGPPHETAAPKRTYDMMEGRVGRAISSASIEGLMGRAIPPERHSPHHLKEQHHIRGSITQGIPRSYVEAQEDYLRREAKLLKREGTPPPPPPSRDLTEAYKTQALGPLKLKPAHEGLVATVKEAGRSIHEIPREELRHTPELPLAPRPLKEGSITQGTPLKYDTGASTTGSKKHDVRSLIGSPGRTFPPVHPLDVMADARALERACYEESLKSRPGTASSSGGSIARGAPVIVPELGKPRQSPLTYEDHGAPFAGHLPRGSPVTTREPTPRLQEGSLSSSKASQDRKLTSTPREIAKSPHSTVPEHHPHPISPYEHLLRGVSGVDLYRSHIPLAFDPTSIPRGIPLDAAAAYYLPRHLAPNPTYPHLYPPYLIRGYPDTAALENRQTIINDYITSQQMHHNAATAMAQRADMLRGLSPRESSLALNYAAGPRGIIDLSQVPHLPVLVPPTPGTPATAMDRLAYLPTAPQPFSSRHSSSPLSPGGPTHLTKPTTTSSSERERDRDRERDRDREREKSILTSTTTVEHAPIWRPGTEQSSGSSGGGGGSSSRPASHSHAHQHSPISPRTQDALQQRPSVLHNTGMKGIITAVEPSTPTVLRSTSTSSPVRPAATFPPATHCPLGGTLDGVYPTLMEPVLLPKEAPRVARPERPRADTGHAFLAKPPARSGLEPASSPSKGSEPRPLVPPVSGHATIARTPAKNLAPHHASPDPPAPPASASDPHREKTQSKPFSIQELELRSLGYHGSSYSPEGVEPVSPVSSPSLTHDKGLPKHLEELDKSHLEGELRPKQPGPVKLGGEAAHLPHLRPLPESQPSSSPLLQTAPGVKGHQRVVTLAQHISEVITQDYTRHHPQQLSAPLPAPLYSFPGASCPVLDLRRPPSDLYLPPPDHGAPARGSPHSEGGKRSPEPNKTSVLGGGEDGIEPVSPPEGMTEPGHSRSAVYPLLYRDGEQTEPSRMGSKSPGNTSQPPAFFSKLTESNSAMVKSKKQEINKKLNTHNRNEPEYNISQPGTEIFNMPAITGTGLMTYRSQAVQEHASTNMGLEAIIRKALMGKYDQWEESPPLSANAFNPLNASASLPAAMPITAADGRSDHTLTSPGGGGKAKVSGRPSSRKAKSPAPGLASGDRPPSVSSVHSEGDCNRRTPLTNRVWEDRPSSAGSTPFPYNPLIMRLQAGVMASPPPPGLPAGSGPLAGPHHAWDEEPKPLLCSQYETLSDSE

[9] = biological target: Histone deacetylase 1 (Homo sapiens, UniProt Q13547); assay: Inhibition of recombinant human full-length C-terminal Flag-His6-tagged HDAC1 (1 to 482 residues) expressed in Sf9 insect cells using fluorogenic HDAC substrate measured after 30 mins by fluorimetry
Chain of Histone deacetylase 1 (Q13547 whole entry, the tested form may be a part): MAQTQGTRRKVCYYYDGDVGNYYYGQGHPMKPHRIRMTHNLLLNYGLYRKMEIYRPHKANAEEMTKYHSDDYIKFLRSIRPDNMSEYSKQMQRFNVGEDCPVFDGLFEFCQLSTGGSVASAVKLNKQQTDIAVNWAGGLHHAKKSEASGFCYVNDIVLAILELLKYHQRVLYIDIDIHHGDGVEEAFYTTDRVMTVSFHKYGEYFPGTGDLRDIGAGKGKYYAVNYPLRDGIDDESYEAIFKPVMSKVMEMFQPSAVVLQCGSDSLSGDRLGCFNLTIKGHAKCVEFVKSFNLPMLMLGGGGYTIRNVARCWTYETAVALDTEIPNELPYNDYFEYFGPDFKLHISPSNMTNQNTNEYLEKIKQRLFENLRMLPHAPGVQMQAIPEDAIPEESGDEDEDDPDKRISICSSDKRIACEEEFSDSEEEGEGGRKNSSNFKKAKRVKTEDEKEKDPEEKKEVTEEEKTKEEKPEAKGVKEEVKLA

[10] = biological target: Histone deacetylase 4 (Homo sapiens, UniProt P56524); assay: Inhibition of recombinant human N-terminal GST-fused/C-terminal His-tagged HDAC4 (627 to 1084 residues) expressed in baculovirus infected Sf9 insect cells using fluorogenic HDAC class 2a substrate measured after 30 mins by fluorimetry
Chain of Histone deacetylase 4 (P56524 whole entry, the tested form may be a part): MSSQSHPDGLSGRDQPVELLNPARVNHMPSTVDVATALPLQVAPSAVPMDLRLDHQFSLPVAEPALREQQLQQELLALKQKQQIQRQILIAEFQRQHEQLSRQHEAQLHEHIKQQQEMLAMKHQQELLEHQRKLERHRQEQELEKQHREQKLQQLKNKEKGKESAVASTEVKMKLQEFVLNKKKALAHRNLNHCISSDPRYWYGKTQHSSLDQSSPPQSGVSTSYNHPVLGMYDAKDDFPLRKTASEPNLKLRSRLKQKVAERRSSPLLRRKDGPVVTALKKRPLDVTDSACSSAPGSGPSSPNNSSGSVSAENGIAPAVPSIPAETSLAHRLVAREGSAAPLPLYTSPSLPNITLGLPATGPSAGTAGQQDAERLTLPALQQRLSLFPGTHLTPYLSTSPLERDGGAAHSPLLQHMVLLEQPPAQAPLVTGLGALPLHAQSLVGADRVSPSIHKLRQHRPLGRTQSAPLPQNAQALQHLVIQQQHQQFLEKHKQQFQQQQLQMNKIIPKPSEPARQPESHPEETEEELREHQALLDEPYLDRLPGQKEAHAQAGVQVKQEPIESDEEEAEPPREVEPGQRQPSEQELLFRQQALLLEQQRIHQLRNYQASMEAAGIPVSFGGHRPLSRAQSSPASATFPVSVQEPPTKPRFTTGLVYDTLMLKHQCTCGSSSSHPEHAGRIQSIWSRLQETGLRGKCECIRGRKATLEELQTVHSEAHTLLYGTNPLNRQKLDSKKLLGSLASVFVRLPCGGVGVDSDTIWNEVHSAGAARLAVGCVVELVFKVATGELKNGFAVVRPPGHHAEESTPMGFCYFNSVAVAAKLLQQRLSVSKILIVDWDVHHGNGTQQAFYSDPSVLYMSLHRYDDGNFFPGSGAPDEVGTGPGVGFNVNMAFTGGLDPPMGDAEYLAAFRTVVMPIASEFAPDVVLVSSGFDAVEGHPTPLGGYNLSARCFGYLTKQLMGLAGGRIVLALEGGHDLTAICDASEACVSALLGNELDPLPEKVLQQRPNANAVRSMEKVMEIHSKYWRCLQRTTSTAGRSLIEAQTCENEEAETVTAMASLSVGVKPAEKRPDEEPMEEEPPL

[11] = test system: HepG2; assay: cells; format: functional, cell-based; details: Homo sapiens, HepG2, 48 h
[12] = test system: K562; assay: cells; format: functional, cell-based; details: Homo sapiens, K562, 48 h
[13] = test system: MDA-MB-231; assay: Potency index, ratio of MS-275 IC50 to test compound IC50 for antiproliferative activity against human MDA-MB-231 cells; format: functional
[14] = test system: MDA-MB-231; assay: Potency index, ratio of SAHA IC50 to test compound IC50 for antiproliferative activity against human MDA-MB-231 cells; format: functional

Structure (SMILES) | IC50 [1] [µM] | IC50 [2] [µM] | IC50 [4] [µM] | IC50 [5] [µM] | also measured
CCNc1nc(Cl)nc2c1ncn2Cc1ccc(C(=O)Nc2ccc(Br)cc2N)cc1 | 10.33 |  |  |  | 
Cc1ccc(NC(=O)c2ccc(Cn3cnc4c(Cl)nc(Cl)nc43)cc2)c(N)c1 | 25.04 |  |  |  | 
CNc1nc(Cl)nc2c1ncn2CCCC(=O)NCc1ccc(C(=O)Nc2ccccc2N)cc1 | 5.02 | 87.1 | 97 | 27 | IC50 [3]: 15.5 µM
CCN(CC)c1nc(Cl)nc2c1ncn2CCCC(=O)NCc1ccc(C(=O)Nc2ccccc2N)cc1 | 3.91 | 20.6 | 392 | 59.9 | IC50 [3]: 11.1 µM
CCNc1nc(Cl)nc2c1ncn2Cc1ccc(C(=O)Nc2ccc(C)cc2N)cc1 | 5.57 |  |  |  | 
Nc1cc(Br)ccc1NC(=O)c1ccc(Cn2cnc3c(Cl)nc(Cl)nc32)cc1 | 9.1 |  |  |  | 
CCCNc1nc(Cl)nc2c1ncn2CCCC(=O)NCc1ccc(C(=O)Nc2ccccc2N)cc1 | 1.26 | 21.5 | 514 | 21.1 | IC50 [3]: 28.4 µM
CNc1nc(Cl)nc2c1ncn2Cc1ccc(C(=O)Nc2ccc(Br)cc2N)cc1 | 2.16 |  |  |  | 
CCN(CC)c1nc(Cl)nc2c1ncn2Cc1ccc(C(=O)Nc2ccc(C)cc2N)cc1 | 4.33 |  |  |  | 
CCNc1nc(Cl)nc2c1ncn2Cc1ccc(C(=O)Nc2ccccc2N)cc1 | 1.64 | 1.53 | 0.86 | 0.99 | IC50 [6]: 2.37 µM; IC50 [7]: 31.7 µM; IC50 [8]: 1.07 µM; IC50 [9]: 0.0935 µM; IC50 [10]: > 100 µM; IC50 [3]: 0.06 µM; IC50 [11]: 0.16 µM; IC50 [12]: 2.89 µM; Ratio IC50 [13]: 4; Ratio IC50 [14]: 4
Cc1ccc(Nc2nc(Cl)nc3c2ncn3CCCCCCCC(=O)NO)cc1 | 0.0153 |  |  |  | 
CCCCCNc1nc(Cl)nc2c1ncn2Cc1ccc(C(=O)Nc2ccc(C)cc2N)cc1 | 2.03 |  |  |  | 
Nc1cc(F)ccc1NC(=O)c1ccc(Cn2cnc3c(Cl)nc(Cl)nc32)cc1 | 2.64 |  |  |  | 
CNc1nc(Cl)nc2c1ncn2Cc1ccc(C(=O)Nc2ccc(C)cc2N)cc1 | 1.98 |  |  |  | 
CNc1nc(Cl)nc2c1ncn2Cc1ccc(C(=O)Nc2ccc(F)cc2N)cc1 | 1.73 |  |  |  | 
CCCNc1nc(Cl)nc2c1ncn2Cc1ccc(C(=O)Nc2ccccc2N)cc1 | 0.574 | 5.5 | 0.8 | 1.99 | IC50 [6]: 1.88 µM; IC50 [7]: 43.7 µM; IC50 [8]: 1.36 µM; IC50 [9]: 0.309 µM; IC50 [10]: > 100 µM; IC50 [3]: 0.05 µM; IC50 [11]: 0.12 µM; IC50 [12]: 5.43 µM; Ratio IC50 [13]: 4; Ratio IC50 [14]: 4

Structure (SMILES) | IC50 [1] [µM] | IC50 [2] [µM] | IC50 [4] [µM] | IC50 [5] [µM] | also measured
CCCCNc1nc(Cl)nc2c1ncn2CCCC(=O)NCc1ccc(C(=O)Nc2ccccc2N)cc1 | 0.95 | 11.2 | 165 | 64.1 | IC50 [3]: 5.64 µM
CCCCCNc1nc(Cl)nc2c1ncn2Cc1ccc(C(=O)Nc2ccc(F)cc2N)cc1 | 2.86 |  |  |  | 
CCCNc1nc(Cl)nc2c1ncn2Cc1ccc(C(=O)Nc2ccc(C)cc2N)cc1 | 3.13 |  |  |  | 
CCCCCNc1nc(Cl)nc2c1ncn2Cc1ccc(C(=O)Nc2ccc(Br)cc2N)cc1 | 18.68 |  |  |  | 
CCNc1nc(Cl)nc2c1ncn2Cc1ccc(C(=O)Nc2ccc(F)cc2N)cc1 | 5.77 |  |  |  | 
CCCCNc1nc(Cl)nc2c1ncn2Cc1ccc(C(=O)Nc2ccc(C)cc2N)cc1 | 1.01 |  |  |  | 
CCCNc1nc(Cl)nc2c1ncn2Cc1ccc(C(=O)Nc2ccc(Br)cc2N)cc1 | 9.26 |  |  |  | 
CCCCNc1nc(Cl)nc2c1ncn2Cc1ccc(C(=O)Nc2ccc(F)cc2N)cc1 | 1.28 |  |  |  | 
CCCCCNc1nc(Cl)nc2c1ncn2CCCC(=O)NCc1ccc(C(=O)Nc2ccccc2N)cc1 | 3.43 | 14.4 | 177 | 19.6 | IC50 [3]: 9.68 µM
CCN(CC)c1nc(Cl)nc2c1ncn2Cc1ccc(C(=O)Nc2ccc(Br)cc2N)cc1 | 3.11 |  |  |  | 
CCNc1nc(Cl)nc2c1ncn2CCCC(=O)NCc1ccc(C(=O)Nc2ccccc2N)cc1 | 2.31 | 90.8 | 149 | 56.8 | IC50 [3]: 17.5 µM
CCCCNc1nc(Cl)nc2c1ncn2Cc1ccc(C(=O)Nc2ccc(Br)cc2N)cc1 | 2.04 |  |  |  | 
Nc1ccccc1NC(=O)c1ccc(CNC(=O)OCc2cccnc2)cc1 [ENTINOSTAT] |  | 2.48 | 1.48 | 0.98 | IC50 [11]: 1.76 µM; IC50 [12]: 1.19 µM
CCN(CC)c1nc(Cl)nc2c1ncn2Cc1ccc(C(=O)Nc2ccc(F)cc2N)cc1 | 4.24 |  |  |  | 
CCCNc1nc(Cl)nc2c1ncn2Cc1ccc(C(=O)Nc2ccc(F)cc2N)cc1 | 4.41 |  |  |  | 
CNc1nc(Cl)nc2c1ncn2Cc1ccc(C(=O)Nc2ccccc2N)cc1 | 1.48 | 1.67 | 0.86 | 5.16 | IC50 [6]: 1.02 µM; IC50 [7]: 21.8 µM; IC50 [8]: 1.77 µM; IC50 [9]: 0.0774 µM; IC50 [10]: > 100 µM; IC50 [3]: 0.24 µM; IC50 [11]: 2.29 µM; IC50 [12]: 0.023 µM; Ratio IC50 [13]: 4; Ratio IC50 [14]: 4

— ChEMBL document CHEMBL5154702, “Synthesis and biological evaluation of aminobenzamides containing purine moiety as class I histone deacetylases inhibitors” (Bioorg Med Chem, 2022)
